Values after ≈ are worked out from the molar mass of the structure shown. “Also recorded” adds a separate entry of the source. Where two headings read alike, the source gives them in different places.
What was measured:
[1] = test system: zymosan activated PMNs (human whole blood cells); test: Oxidative burst inhibition assay (luminol-enhanced chemiluminescence, zymosan-activated); assay type: cell-based; details: for IC50: Whole blood cell, zymosan activated PMNs / human whole blood, tested at 1, 10, 100 μg/mL, mean ± SD of triplicates
Method: Oxidative burst assay was carried out by chemiluminescence technique using luminol as a probe to determine the effect of test compounds on the production of reactive oxygen species (ROS) from phagocytes, employing […] et al. method with slight modifications. […] Louis, MO, USA) and 25 μL ([…]) of luminol (Sigma Chemical Co., St. Louis, MO, USA). HBSS^++ alone was run as a negative control. The level of ROS was measured as RLU (relative light units) with a luminometer (Labsystem Luminoskan RS, Finland). The luminometer was used in repeated scan mode with 50 seconds interval, and one second point measuring time.

PHA activated T-cells = test: T-cell proliferation inhibition assay (PBMC, tritiated thymidine); assay type: cell-based, human; details: for IC50: T-cell; for Inhibition of T-cell proliferation (in words): PHA activated T-cells
Method: The T-Cell proliferation inhibitory activity of compounds was evaluated by following the reported method of Nielsen et al. (1998) with slight modifications. Peripheral blood mononuclear cells (PBMC) were isolated from healthy human donors with their consent by Ficoll-Hypaque density gradient centrifugation. The study was carried out after approval from independent ethics committee, ICCBS-UoK, No: ICCBS/IEC-008-BC-2015/Protocol/1.0.
The cells were adjusted to a final concentration of 2 × 10^6 cells/mL in 5% FBS (fetal bovine serum) containing RPMI 1640 media and added with 5 μg/mL phytohemagglutinin (PHA) in 96-well round bottom plates. Each compound was added in triplicate using four concentrations (0.2, 1, 5, and 25 μg/mL). Positive control wells contained cells and PHA, whereas cells alone served as a negative control. The plate was incubated in 5% CO2 at 37°C for 72 h, and cells were pulsed with 25 μL of tritiated thymidine (0.5 μci/well). The incubation was continued for further 18 h. The cells were finally harvested on a glass fiber filter, and the plate was read as count per minute (CPM) using β-scintillation counter.

[2] = test system: TNF-α produced by LPS activated THP-1 cells; test: Cytokine inhibition assay (TNF-α ELISA); assay type: cell-based, human; details: for inhibition at 25 µg/mL: Homo sapiens, read-out: TNF-α % inhibition
Description: THP-1 (Human monocytic leukemia cells) was purchased from ECACC (85011428, European Collection of Cell Cultures, UK). The cells were maintained in endotoxin free RPMI-1640 containing 5.5 mmol/L glucose (BioM Laboratories, Chemical Division, Malaysia), 50 μmol/L mercaptoethanol Merck (Damstadt, Germany), 10% FBS (fetal bovine serum), 2 mmol/L L-glutamine (PAA Laboratories, GmbH, Pasching, Austria), 1 mmol/L sodium pyruvate (GIBCO, Grand Island, N.Y., U.S.A.), and 10 mmol/L HEPES (MP Biomedicals, lllkirch, France). Upon reaching 70% confluency, 2.5×10^5 cells/mL cells were plated in 24 well tissue culture plates. The cells were differentiated using 20 ng/mL phorbol myristate acetate (PMA) (SERVA, Heidelberg, Germany) for 24 hours. The cells were stimulated by adding 50 ng/mL of Escherichia coli lipopolysaccharide B (DIFCO Laboratories, U.S.A.) and treated with compound (25 μg/mL). The incubation was continued for 4 hours at 37°C in 5% CO2. The supernatants collected were analyzed for the level of pro-inflammatory cytokine TNF-α, and quantification was performed by human TNF-α kit (R&D Systems, Minneapolis, U.S.A.), according to manufacturer’s instructions.

[3] = Homo sapiens, read-out: IC50, PHA activated T-cells proliferation, human PBMC, 5 μg/mL PHA, tested at 0.2, 1, 5, 25 μg/mL, mean ± SD of triplicates
[4] = human PBMC, 5 μg/mL PHA, tested at 0.2, 1, 5, 25 μg/mL, mean ± SD of triplicates, read-out: IC50, PHA activated T-cells proliferation

Row | SMILES | IC50 [1] | IC50 (PHA activated T-cells; [3]) | Inhibition of T-cell proliferation (in words) (PHA activated T-cells) | inhibition at 25 µg/mL ([2]; THP-1, 4 h) | melting point | IC50 (PHA activated T-cells; [4]) | Inhibition of oxidative burst / ROS (in words) ([1]; zymosan-induced, human whole blood cells / PMNs) | IC50, PHA activated T-cells proliferation (PHA activated T-cells; human PBMC, 5 μg/mL PHA, tested at 0.2, 1, 5, 25 μg/mL, mean ± SD of triplicates) | Inhibition of TNF-α production (in words) ([2]; LPS activated THP-1 cells) | inhibition at 25 µg/mL ([2]; compound 25 μg/mL, LPS activated THP-1 cells, 4 h, mean ± SD of triplicates, -ve sign = increase in cytokine level)
1 | CC(=O)[C@H]1CC[C@@]2(O)[C@@H]3C[C@H](C)C4=CC(=O)CC[C@]4(C)[C@H]3C(=O)C[C@]12C [Compound 2, 14α-Hydroxy-6α-methylpregn-4-ene-3,11,20-trione] | > 100 µg/mL | 20 ± 0.9 µg/mL (≈ 55.8 µM) | moderate inhibitors | -4.04 ± 0.2% | 209 to 210 °C |  |  |  |  | 
2 | CC(C)Cc1ccc(C(C)C(=O)O)cc1 (stereo not shown) [Ibuprofen, reference compound] | 2.5 ± 0.6 µg/mL |  |  |  |  |  |  |  |  | 
3 | C[C@]12C=CC(=O)C=C1CC[C@@H]1[C@@H]2[C@@H](O)C[C@@]2(C)[C@H]1CC[C@]2(O)C(=O)CO [Prednisolone, reference compound] |  |  |  |  |  | < 3.1 µg/mL |  |  |  | 
4 | CC(=O)[C@@]1(O)CC[C@H]2[C@@H]3C[C@@](C)(O)C4=CC(=O)CC[C@]4(C)[C@H]3C(=O)C[C@@]21C [Compound 5, 6β,17α-Dihydroxy-6α-methylpregn-4-ene-3,11,20-trione] | > 100 µg/mL | 1.2 ± 0.02 µg/mL (≈ 3.2 µM) | strongly inhibited; also recorded: strong inhibitory activity | 6.44 ± 0.21% | 289 to 291 °C |  |  |  |  | 
5 | C[C@H]1C[C@H]2[C@@H]3[C@H](O)C[C@H]([C@@H](C)O)[C@@]3(C)CC(=O)[C@@H]2[C@@]2(C)CCC(=O)C=C12 [Compound 8, 15β,20R-Dihydroxy-6α-methylpregn-4-ene-3,11-dione] | > 100 µg/mL | 10.4 ± 0.42 µg/mL (≈ 28.8 µM) | strongly inhibited; also recorded: strong inhibitory activity | -8.23 ± 2.75% | 274 to 275 °C |  |  |  |  | 
6 | CC(O)C1CCC2C3CC(C)(O)C4=CC(=O)CCC4(C)C3C(=O)CC12C (stereo not drawn) [Compound 6, 6β,20S-Dihydroxy-6α-methylpregn-4-ene-3,11-dione] | 30.3 ± 8.8 µg/mL | 15.2 ± 2.4 µg/mL (≈ 42.2 µM) | moderate inhibitors | 4.4 ± 9.6% | 229 to 230 °C |  | moderate inhibitory activity |  |  | 
7 | CC(=O)[C@H]1CC[C@H]2[C@@H]3C[C@@](C)(O)C4=CC(=O)CC[C@]4(C)[C@H]3C(=O)C[C@]12C [Compound 3, 6β-Hydroxy-6α-methylpregn-4-ene-3,11,20-trione] | > 100 µg/mL | 14.6 ± 2.1 µg/mL (≈ 40.7 µM) | moderate inhibitors | -2.69 ± 5.08% |  |  |  |  |  | 
8 | CC(=O)[C@H]1[C@@H](O)C[C@H]2[C@@H]3C[C@H](C)C4=CC(=O)CC[C@]4(C)[C@H]3[C@@H](O)C[C@@]21C [Compound 7] | > 100 µg/mL | 0.2 to 10.4 µg/mL (≈ 0.555 to 28.8 µM) | strongly inhibited; also recorded: strong inhibitory activity | 28.6 ± 11.5% |  |  |  | <0.2 µg/mL | inhibit; also recorded: moderate levels of inhibition | 
9 | CC(=O)[C@H]1C[C@@H](O)[C@H]2[C@@H]3C[C@H](C)C4=CC(=O)CC[C@]4(C)[C@H]3C(=O)C[C@@]21C [Compound 4, 15β-Hydroxy-6α-methylpregn-4-ene-3,11,20-trione] | > 100 µg/mL | 9.2 ± 0.7 µg/mL (≈ 25.7 µM) | strongly inhibited; also recorded: strong inhibitory activity | -7.49 ± 1.27% | 185 to 186 °C |  |  |  |  | 
10 | CC(=O)[C@H]1CC[C@H]2[C@@H]3C[C@H](C)C4=CC(=O)CC[C@]4(C)[C@H]3[C@@H](O)C[C@]12C [Compound 1, 11β-hydroxy-6α-methylpregn-4-ene-3,20-dione, reference compound] | > 100 µg/mL |  | strongly inhibited; also recorded: strong inhibitory activity |  |  | 2.9 ± 0.04 µg/mL (≈ 8.42 µM) |  |  | inhibit; also recorded: moderate levels of inhibition | 30.5 ± 1.69%
